The results in this text go back to patent publication US20180186755A1, “LYSYL OXIDASE-LIKE 2 INHIBITORS AND USES THEREOF” (PharmAkea, Inc., priority 2015, published 2018).

Test [1] has as its system bleomycin-induced lung fibrosis in C57Bl/6 male mice. The test can be described thus: Mouse oropharyngeal bleomycin model of lung fibrosis. In kind it is in vivo. The note with it: dosed prophylactically at 60 mg/kg p.o. As for the experimental part: Example B-3: Mouse Oropharyngeal Bleomycin Model of Lung Fibrosis
Lung fibrosis is induced in C57Bl/6 male mice by administering bleomycin (0.1-4 U/kg) via oropharyngeal instillation. Mice are either pretreated with vehicle or test compound (1 day to 1 hour) orally, intraperitoneally, intravenously or subcutaneously before bleomycin installation (prophylactic dosing) or 7-14 days post bleomycin instillation (therapeutic dosing). The route and frequency of dosing are based on previously determined pharmacokinetic properties for the LOXL2 inhibitor in mouse. After bleomycin instillation animals are monitored daily for weight loss and clinical signs for 14-28 days prior to sacrifice. […] For histological examination, lung slices are stained with Masson's trichrome or Picro-Sirius red to measure cross-linked collagen as an indicator of fibrosis and an Ashcroft score of lung fibrotic and inflammatory damage determined. In addition, immunohistochemistry of fibrotic proteins such as a-smooth muscle actin can be recorded. […] After the acid hydrolysis, 25-100 μl of the supernatant is dried down, resuspended in 25 μl water and the hydroxyproline content determined by the addition of 0.5 ml Chloramine T solution (140 mg Chloramine T in 6.5 ml ddH20+1 ml n-propanol+2.5 ml 1M sodium acetate) and incubation at room temperature for 20 min. […]

For test [2], the target named is T1, human LOXL2 (Homo sapiens, UniProt Q9Y4K0).
T1 construct: expressed in transfected cells; 10-20x concentrated conditioned media used as the enzyme source
T1 sequence (Q9Y4K0 26-774): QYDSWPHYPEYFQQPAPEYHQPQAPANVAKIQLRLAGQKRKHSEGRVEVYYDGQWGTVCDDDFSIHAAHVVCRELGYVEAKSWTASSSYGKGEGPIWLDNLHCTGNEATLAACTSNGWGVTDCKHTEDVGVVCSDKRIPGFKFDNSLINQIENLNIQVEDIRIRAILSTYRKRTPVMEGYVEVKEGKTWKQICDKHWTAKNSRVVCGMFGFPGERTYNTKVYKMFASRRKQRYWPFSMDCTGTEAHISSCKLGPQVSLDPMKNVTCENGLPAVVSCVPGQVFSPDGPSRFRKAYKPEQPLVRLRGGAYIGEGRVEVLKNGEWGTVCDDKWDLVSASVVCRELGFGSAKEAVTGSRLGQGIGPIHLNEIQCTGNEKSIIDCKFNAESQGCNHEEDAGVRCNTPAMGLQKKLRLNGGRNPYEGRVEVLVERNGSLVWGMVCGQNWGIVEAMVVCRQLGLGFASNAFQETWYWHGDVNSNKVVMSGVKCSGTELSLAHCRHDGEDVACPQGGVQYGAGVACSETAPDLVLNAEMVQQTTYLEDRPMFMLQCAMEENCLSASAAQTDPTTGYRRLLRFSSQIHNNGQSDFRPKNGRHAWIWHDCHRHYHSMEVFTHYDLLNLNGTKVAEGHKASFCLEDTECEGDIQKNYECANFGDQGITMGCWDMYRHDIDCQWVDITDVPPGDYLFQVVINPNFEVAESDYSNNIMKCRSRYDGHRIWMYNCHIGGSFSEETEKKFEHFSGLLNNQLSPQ
The test can be described thus: Human LOXL2 amine oxidase activity assay (Amplex Red fluorescence). Type of test: biochemical. The note with it: concentrated conditioned media from CHO cells stably expressing human LOXL2; 2 h at 37° C. preincubation; DAP substrate. Put shortly:
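Enzyme source: 10-20× concentrated conditioned media from CHO cells stably expressing human LOXL2, preincubated with compound for 2 h at 37° C in 50 mM borate pH 8. Reaction started with 1,5-diaminopentane plus Amplex Red/HRP; fluorescence (ex 544/em 590) read kinetically for 1 hour, activity from linear slope.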

Where a name gives a salt, the structure may show the parent alone.

Consider `Cl.NCc1cc(Oc2cccc(C(=O)NCc3ccnc(Cl)c3)c2)ncn1` [Compound 1-55, 3-((6-(Aminomethyl)pyrimidin-4-yl)oxy)-N-((2-chloropyridin-4-yl)methyl)benzamide], for which, in test [1], the “efficacy in mouse oropharyngeal bleomycin model of lung fibrosis” value is given as “efficacious”. Besides, the IC50 in test [2] is under 100 nM.

In test [2], `NCc1cc(NCc2cccc(C(=O)Nc3ccccc3)c2)ncn1` [Compound 1-43, 3-(((6-(Aminomethyl)pyrimidin-4-yl)amino)methyl)-N-phenylbenzamide] showed an IC50 of under 100 nM.

As for `NCc1cc(Oc2cccc(C(=O)N3CCc4ccncc43)c2)ncn1` [Compound 1-52, (3-((6-(Aminomethyl)pyrimidin-4-yl)oxy)phenyl)(2,3-dihydro-H-pyrrolo[2,3-c]pyridin-1-yl)methanone, hydrochloride], the 50% inhibitory concentration (IC50) in test [2] was under 100 nM.

Compound `Cn1c(CNC(=O)c2cccc(COc3cc(CN)ncn3)c2)cc2ccccc21` [Compound 1-86, 3-(((6-(Aminomethyl)pyrimidin-4-yl)oxy)methyl)-N-((1-methyl-1H-indol-2-yl)methyl)benzamide] yielded an IC50 in test [2] of under 100 nM.

On to `NCc1cc(Oc2cccc(C(=O)N3CCN(c4ccccc4)CC3)c2)ncn1` [Compound 1-72, (3-((6-(Aminomethyl)pyrimidin-4-yl)oxy)phenyl)(4-phenylpiperazin-1-yl)methanone], for which the “efficacy in mouse oropharyngeal bleomycin model of lung fibrosis” value in test [1] is reported as “efficacious”. The same compound had an IC50 in test [2] of under 100 nM.

As for `CCn1ccc2c(Oc3cc(CN)ncn3)cccc21` [Compound 1-20, (6-((1-Ethyl-1H-indol-4-yl)oxy)pyrimidin-4-yl)methanamine], in test [2], the IC50 was under 100 nM.

In test [2], `NCc1cc(Oc2cccc(C(=O)NCc3cc4cc(F)ccc4[nH]3)c2)ncn1` [Compound 1-65, 3-((6-(Aminomethyl)pyrimidin-4-yl)oxy)-N-((5-fluoro-1H-indol-2-yl)methyl)benzamide] registered an IC50 of under 100 nM.

In test [2], `NCc1cc(N2CCN(C(=O)Nc3ccccc3)CC2)ncn1` [Compound 1-105, 4-(6-(Aminomethyl)pyrimidin-4-yl)-N-phenylpiperazine-1-carboxamide] gave an IC50 of 100 to 1000 nM.
